Source: US20100267561A1, “HERBICIDAL PYRIDAZINONE DERIVATIVES” (priority 2007, published 2010)

Key:
Format in all cases: in vivo
[1] = system: bermudagrass (Cynodon dactylon); assay: Test B pre-/postemergence plant response
Outline: (§1)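 Preemergence and postemergence (plants 2-18 cm, 1- to 4-leaf stage) applications used test chemicals in a non-phytotoxic solvent with surfactant. Plants were held in a greenhouse 13 to 15 days, then rated visually against controls on a 0-100 scale (0 no effect, 100 complete control).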

[2] = system: eastern black (E.B.) nightshade (Solanum ptycanthum); assay: Test B pre-/postemergence plant response; details: Preemergence
Outline: as §1

soybean (Glycine max) = assay: Test B pre-/postemergence plant response
Outline: as §1

[3] = system: johnsongrass (Sorghum halepense); assay: Test B pre-/postemergence plant response
Outline: as §1

[4] = system: surinam grass (Brachiaria decumbens); assay: Test B pre-/postemergence plant response
Outline: as §1

[5] = system: wheat (Triticum aestivum); assay: Test B pre-/postemergence plant response
Outline: as §1

[6] = system: large crabgrass (Digitaria sanguinalis); assay: Test B pre-/postemergence plant response
Outline: as §1

[7] = system: Russian thistle (Salsola iberica); assay: Test B pre-/postemergence plant response; details: Preemergence
Outline: as §1

[8] = system: Italian ryegrass (Lolium multiflorum); assay: Test B pre-/postemergence plant response
Outline: as §1

[9] = system: goosegrass (Eleusine indica); assay: Test B pre-/postemergence plant response
Outline: as §1

[10] = system: cocklebur (Xanthium strumarium); assay: Test B pre-/postemergence plant response
Outline: as §1

[11] = system: morningglory (Ipomoea coccinea); assay: Test B pre-/postemergence plant response
Outline: as §1

[12] = system: green foxtail (Setaria viridis); assay: Test B pre-/postemergence plant response
Outline: as §1

[13] = system: windgrass (Apera spica-venti); assay: Test B postemergence plant response; details: Postemergence
Outline: (§2)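 Postemergence spray on 1- to 4-leaf plants (2–18 cm); greenhouse 13–15 d; visual rating vs controls, 0 = no effect, 100 = complete control; dash = not tested.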

[14] = system: winter barley (Hordeum vulgare); assay: Test B postemergence plant response; details: Postemergence
Outline: as §2

[15] = system: chickweed (Stellaria media); assay: Test B postemergence plant response; details: Postemergence
Outline: as §2

[16] = Preemergence, 16 g ai/ha, scale 0 to 100 (0 no effect, 100 complete control)
[17] = Preemergence, 31 g ai/ha, 0 to 100 scale, 0 no effect, 100 complete control
[18] = Preemergence, 62 g ai/ha, scale 0 to 100
[19] = 16 g ai/ha, scale 0 to 100 (0 no effect, 100 complete control)
[20] = 31 g ai/ha, 0 to 100 scale, 0 no effect, 100 complete control
[21] = Preemergence, 8 g ai/ha, scale 0 to 100
[22] = 31 g ai/ha, scale 0 to 100, 0 no effect, 100 complete control
[23] = Postemergence, 16 g ai/ha, scale 0 to 100
[24] = Postemergence, 31 g ai/ha, scale 0 to 100, 0 no effect, 100 complete control
[25] = Postemergence, 62 g ai/ha, scale 0 to 100
[26] = Postemergence, 125 g ai/ha, scale 0 to 100
[27] = Preemergence, 125 g ai/ha, scale 0 to 100

SMILES: Cc1cc(-c2ccc(C(F)(F)F)cc2)nn1-c1c(O)c(C(C)C)nn(C)c1=O [Compound 27]
- Plant response rating, Bermudagrass [1, 16]: 0
- Plant response rating, Bermudagrass [1, 17]: 100
- Plant response rating, Bermudagrass [1, 18]: 100
- Plant response rating, Nightshade, E. B. [2, 19]: 0
- Plant response rating, Nightshade, E. B. [2, 20]: 0
- Plant response rating, Nightshade, E. B. ([2]; 62 g ai/ha, scale 0 to 100): 0
- Nightshade, E. B. plant response rating ([2]; 8 g ai/ha, scale 0 to 100): 0
- Plant response rating, Soybean (soybean (Glycine max); [16]): 0
- Plant response rating, Soybean (soybean (Glycine max); [17]): 0
- Plant response rating, Soybean (soybean (Glycine max); [18]): 0
- Soybean plant response rating (soybean (Glycine max); [21]): 0
- Plant response rating, Johnsongrass [3, 16]: 40
- Plant response rating, Johnsongrass [3, 17]: 75
- Plant response rating, Johnsongrass [3, 18]: 85
- Johnsongrass plant response rating [3, 21]: 0
- Plant response rating, Surinam Grass [4, 16]: 0
- Plant response rating, Surinam Grass [4, 17]: 0
- Plant response rating, Surinam Grass [4, 18]: 75
- Surinam Grass plant response rating [4, 21]: 0
- Plant response rating, Wheat [5, 16]: 0
- Plant response rating, Wheat [5, 17]: 15
- Plant response rating, Wheat [5, 18]: 45
- Wheat plant response rating [5, 21]: 0
- Plant response rating, Crabgrass, Large [6, 16]: 0
- Plant response rating, Crabgrass, Large [6, 17]: 0
- Plant response rating, Crabgrass, Large [6, 18]: 0
- Crabgrass, Large plant response rating [6, 21]: 0
- Plant response rating, Russian Thistle [7, 19]: 0
- Plant response rating, Russian Thistle [7, 20]: 0
- Plant response rating, Russian Thistle ([7]; 62 g ai/ha, scale 0 to 100): 0
- Russian Thistle plant response rating ([7]; 8 g ai/ha, scale 0 to 100): 0
- Plant response rating, Ryegrass, Italian [8, 16]: 0
- Plant response rating, Ryegrass, Italian [8, 17]: 70
- Plant response rating, Ryegrass, Italian [8, 18]: 95
- Ryegrass, Italian plant response rating [8, 21]: 0
- Plant response rating, Goosegrass [9, 16]: 75
- Plant response rating, Goosegrass [9, 17]: 95
- Plant response rating, Goosegrass [9, 18]: 95
- Goosegrass plant response rating [9, 21]: 0
- Plant response rating, Cocklebur [10, 16]: 0
- Plant response rating, Cocklebur [10, 17]: 0
- Plant response rating, Cocklebur [10, 18]: 0
- Cocklebur plant response rating [10, 21]: 0
- Plant response rating, Morningglory [11, 16]: 0
- Plant response rating, Morningglory [11, 17]: 0
- Plant response rating, Morningglory [11, 18]: 0
- Morningglory plant response rating [11, 21]: 0
- Plant response rating, Foxtail, Green [12, 16]: 0
- Plant response rating, Foxtail, Green [12, 17]: 60
- Plant response rating, Foxtail, Green [12, 18]: 85
- Foxtail, Green plant response rating [12, 21]: 0

SMILES: CCc1cc(-c2ccc(C(F)(F)F)cc2)nn1-c1c(OC(=O)OC(C)C)cnn(C)c1=O [Compound 12]
- Plant response rating, Windgrass ([13]; 16 g ai/ha, scale 0 to 100): 100
- Plant response rating, Windgrass [13, 22]: 100
- Plant response rating, Windgrass ([13]; 62 g ai/ha, scale 0 to 100): 100
- Plant response rating, Windgrass ([13]; 125 g ai/ha, scale 0 to 100): 100
- Plant response rating, Barley ([14]; 16 g ai/ha, scale 0 to 100, 0 no effect, 100 complete control): 80
- Plant response rating, Barley [14, 22]: 95
- Plant response rating, Barley ([14]; 62 g ai/ha, scale 0 to 100): 100
- Plant response rating, Barley ([14]; 125 g ai/ha, scale 0 to 100): 100
- Plant response rating, Chickweed ([15]; 16 g ai/ha, scale 0 to 100): 0
- Plant response rating, Chickweed [15, 22]: 0
- Plant response rating, Chickweed ([15]; 62 g ai/ha, scale 0 to 100): 0
- Plant response rating, Chickweed ([15]; 125 g ai/ha, scale 0 to 100): 0
- Plant response rating, Bermudagrass [1, 23]: 100
- Plant response rating, Bermudagrass [1, 24]: 100
- Plant response rating, Bermudagrass [1, 25]: 100
- Plant response rating, Bermudagrass [1, 26]: 100
- Plant response rating, Bermudagrass [1, 16]: 100
- Plant response rating, Bermudagrass [1, 17]: 100
- Plant response rating, Bermudagrass [1, 18]: 100
- Plant response rating, Bermudagrass [1, 27]: 100
- Plant response rating, Nightshade, E. B. [2, 19]: 0
- Plant response rating, Nightshade, E. B. [2, 20]: 0
- Plant response rating, Nightshade, E. B. ([2]; 62 g ai/ha, scale 0 to 100): 50
- Plant response rating, Nightshade, E. B. ([2]; 125 g ai/ha, scale 0 to 100): 85
- Plant response rating, Soybean (soybean (Glycine max); [23]): 0
- Plant response rating, Soybean (soybean (Glycine max); [24]): 0
- Plant response rating, Soybean (soybean (Glycine max); [25]): 0
- Plant response rating, Soybean (soybean (Glycine max); [26]): 0
- Plant response rating, Soybean (soybean (Glycine max); [16]): 0
- Plant response rating, Soybean (soybean (Glycine max); [17]): 0
- Plant response rating, Soybean (soybean (Glycine max); [18]): 0
- Plant response rating, Soybean (soybean (Glycine max); [27]): 0
- Plant response rating, Johnsongrass [3, 23]: 100
- Plant response rating, Johnsongrass [3, 24]: 100
- Plant response rating, Johnsongrass [3, 25]: 100
- Plant response rating, Johnsongrass [3, 26]: 100
- Plant response rating, Johnsongrass [3, 16]: 70
- Plant response rating, Johnsongrass [3, 17]: 95
- Plant response rating, Johnsongrass [3, 18]: 100
- Plant response rating, Johnsongrass [3, 27]: 100
- Plant response rating, Surinam Grass [4, 23]: 100
- Plant response rating, Surinam Grass [4, 24]: 100
- Plant response rating, Surinam Grass [4, 25]: 100
- Plant response rating, Surinam Grass [4, 26]: 100
- Plant response rating, Surinam Grass [4, 16]: 100
- Plant response rating, Surinam Grass [4, 17]: 100
- Plant response rating, Surinam Grass [4, 18]: 100
- Plant response rating, Surinam Grass [4, 27]: 100
- Plant response rating, Wheat [5, 23]: 90
- Plant response rating, Wheat [5, 24]: 95
- Plant response rating, Wheat [5, 25]: 95
- Plant response rating, Wheat [5, 26]: 100
- Plant response rating, Wheat [5, 16]: 20
- Plant response rating, Wheat [5, 17]: 90
- Plant response rating, Wheat [5, 18]: 95
- Plant response rating, Wheat [5, 27]: 95
- Plant response rating, Crabgrass, Large [6, 23]: 100
- Plant response rating, Crabgrass, Large [6, 24]: 100
- Plant response rating, Crabgrass, Large [6, 25]: 100
- Plant response rating, Crabgrass, Large [6, 26]: 100
- Plant response rating, Crabgrass, Large [6, 16]: 100
- Plant response rating, Crabgrass, Large [6, 17]: 100
- Plant response rating, Crabgrass, Large [6, 18]: 100
- Plant response rating, Crabgrass, Large [6, 27]: 100
- Plant response rating, Ryegrass, Italian [8, 23]: 100
- Plant response rating, Ryegrass, Italian [8, 24]: 100
- Plant response rating, Ryegrass, Italian [8, 25]: 100
- Plant response rating, Ryegrass, Italian [8, 26]: 100
- Plant response rating, Ryegrass, Italian [8, 16]: 90
- Plant response rating, Ryegrass, Italian [8, 17]: 95
- Plant response rating, Ryegrass, Italian [8, 18]: 100
- Plant response rating, Ryegrass, Italian [8, 27]: 100
- Plant response rating, Goosegrass [9, 23]: 100
- Plant response rating, Goosegrass [9, 24]: 100
- Plant response rating, Goosegrass [9, 25]: 100
- Plant response rating, Goosegrass [9, 26]: 100
- Plant response rating, Goosegrass [9, 16]: 40
- Plant response rating, Goosegrass [9, 17]: 98
- Plant response rating, Goosegrass [9, 18]: 100
- Plant response rating, Goosegrass [9, 27]: 100
- Plant response rating, Cocklebur [10, 23]: 0
- Plant response rating, Cocklebur [10, 24]: 0
- Plant response rating, Cocklebur [10, 25]: 0
- Plant response rating, Cocklebur [10, 26]: 0
- Plant response rating, Cocklebur [10, 16]: 0
- Plant response rating, Cocklebur [10, 17]: 0
- Plant response rating, Cocklebur [10, 18]: 0
- Plant response rating, Cocklebur [10, 27]: 0
- Plant response rating, Morningglory [11, 23]: 0
- Plant response rating, Morningglory [11, 24]: 0
- Plant response rating, Morningglory [11, 25]: 0
- Plant response rating, Morningglory [11, 26]: 40
- Plant response rating, Morningglory [11, 16]: 0
- Plant response rating, Morningglory [11, 17]: 0
- Plant response rating, Morningglory [11, 18]: 0
- Plant response rating, Morningglory [11, 27]: 0
- Plant response rating, Foxtail, Green [12, 23]: 85
- Plant response rating, Foxtail, Green [12, 24]: 100
- Plant response rating, Foxtail, Green [12, 25]: 100
- Plant response rating, Foxtail, Green [12, 26]: 100
- Plant response rating, Foxtail, Green [12, 16]: 100
- Plant response rating, Foxtail, Green [12, 17]: 100
- Plant response rating, Foxtail, Green [12, 18]: 100
- Plant response rating, Foxtail, Green [12, 27]: 100
